# Experimental data as given in patent publication US20050153870A1, “Medicinal composition for diagnosis, prevention, or therapy of multiple risk factor syndrome” (priority 2002, published 2005).
# Marks after values point to notes of the source that are not given here.
# Key:
# [1] = system: Zucker rats; experiment: Glucose tolerance test using Zucker rats (Example 6); assay type: in vivo, rat
# Protocol: The effect of 4-O-carboxymethylascochlorin (AS-6) in a glucose tolerance test were checked by using Zucker rats. Zucker control rats, Zucker AS-6 administered rats (20 mg/kg, perorally for a week), and Lean control rats were fasted overnight. Next morning, blood was taken from the caudal vein, and thereafter, 2 g/kg of glucose was perorally administered. Blood was taken from the caudal vein 30, 60 and 120 minutes after the administration and checked for blood sugar (7 mice/group).
# [2] = system: Db/db mouse, Zucker rat; experiment: Insulin sensitivity test; assay type: in vivo; conditions: feed containing 0.1% for one week, hereditary obese animal
# [3] = system: Zucker rats; experiment: AS-6 in feed to Zucker rats for 10 weeks (Example 5); assay type: in vivo, rat; conditions: 0.12% in feed
# Protocol: Zucker rats were divided into two groups. One group was raised with commercially available feed to which 4-O-carboxymethylascochlorin (AS-6) was mixed up to a content of 0.12%. The other group and normal Lean-rat littermate group were raised for 10 weeks with the same commercially available feed containing no AS-6. Thereafter, body weight, white adipose cell weight, blood insulin, blood sugar, and blood lipid were measured (7 mice/group).
# [4] = system: C57BL/6j-ob/ob mice; experiment: AS-6 in feed to ob/ob mice (Example 3); assay type: in vivo, mouse; conditions: 0.1% in feed, 1 week
# Protocol: C57BL/6j-ob/ob mice, which were model animals of multiple risk factor syndrome, were raised for a week with powered feed in which an ascochlorin derivative, 4-O-carboxymethylascochlorin (AS-6), was mixed in a content of 0.1%. Thereafter, the weight, blood sugar, blood insulin, and blood neutral fat were measured.
# [5] = system: db/db mice; experiment: Blood sugar decreasing effect in db/db mice (Example 7); assay type: in vivo, mouse; conditions: for Body weight / Blood sugar level: in feed for a week (MAC 0.05%, AS-103 0.05%, AR-610 0.1%, AF 0.4%, AC 0.05%); for Body weight: control group 44.6 ± 0.9; for Blood sugar level: control group 549.8 ± 21.8; for Blood sugar level, change vs control group / Body weight, change vs control group: in feed for a week, contents as in table
# Protocol: (§1) Powered feed to which ascofuranone (AF) and ascochlorin (AC) as well as its derivatives, 4-0-methylascochlorin (MAC), 4-0-carboxymethylascochlorin (AS-6), and 4-0-nicotinoyl ascochlorin (AS-103) were added to feed at the proportions shown in the table, and the feed were given to db/db mice for a week and then analyzed for blood sugar decreasing effect (8 mice/group).
# [6] = system: Mouse, rat, beagle dog, quail, DOCA hypertension rat; experiment: Serum cholesterol decreasing effect; assay type: in vivo; conditions: incl. rat and quail raised with hyperfat feed
# Protocol: The quails are raised by giving a feed containing 2% cholesterol for 9 months to develop hypercholesteremia, and, in the case of the rats, mineral corticoid and saline are administered to allow them to develop heart and blood vessel disease and then hypercholesteremia.
# [7] = system: Lean; experiment: Body weight and blood sugar in Lean mice (Example 7); assay type: in vivo, mouse; conditions: for Body weight / Blood sugar level: in feed for a week (MAC 0.05%, AS-103 0.05%, AR-610 0.1%, AF 0.4%, AC 0.05%); for Body weight: control group 20.9 ± 0.8; for Blood sugar level: control group 211.2 ± 7.8; for Blood sugar level, change vs control group / Body weight, change vs control group: in feed for a week, contents as in table
# Protocol: [The procedure below names another variant; the source lists this variant under the same test.] as §1
# [8] = system: Mouse, db/db mouse; experiment: Serum insulin decreasing effect; assay type: in vivo; conditions: about 0.1% added to feed
# [9] = system: patients with type II diabetes; experiment: Glucose tolerance test in Clinical test II; assay type: in vivo, human; conditions: 50 g of glucose perorally at fasting; after therapy of 12 weeks vs before; 30 patients
# Protocol: A glucose tolerance test were performed by perorally taking 50 g of glucose at fasting time in the early morning and measuring concentrations of blood sugar and urine sugar with time. A solid line represents the results immediately before therapy and a broken line represents immediately after the therapy of 12 weeks. Since a process of a glucose tolerance test more or less varied depending upon medical institutions, data of all patients (30 patients) with type II diabetes participated in this test in a single and the same institution are statistically analyzed and shown. […] Note that, in the FIGS. 2 and 3, numerical values each represent average value±standard deviation.
# [10] = in vivo; cited from earlier work
# [11] = system: Rabbit; experiment: Arteriosclerosis suppressing effect, rabbit on hyperfat feed; assay type: in vivo; conditions: 0.2 to 0.05% mixed to hyperfat feed
# Text: As to prevention/therapy of arteriosclerosis, a big difference is observed in effect between medicaments conceivably effective in improving arteriosclerosis, such as fibrate series medicament, thiazolidine series medicament, probucol, and statin series medicament and a compound of the present invention.
# [12] = Zucker rats, 20 mg/kg perorally for a week
structure (smiles),measurement,setting,value
"CC(C=CC1(C)C(C)CCC(=O)C1C)=CCc1c(O)c(C=O)c(C)c(Cl)c1OCC(=O)O (stereo not drawn) [AS-6, 4-O-carboxymethylascochlorin]","blood sugar, change vs Zucker control group",[1]; 0 minute after glucose loading,−19.7%(*)
same,blood sugar,"[1]; 20 mg/kg perorally for a week, 0 minute after glucose loading (fasted overnight), Zucker control 107.5 ± 5.0",86.3 ± 4.5
same,blood sugar,"[1]; 20 mg/kg perorally for a week, 30 minutes after glucose loading, Zucker control 235.1 ± 9.6",167.5 ± 3.8
same,blood sugar,"[1]; 20 mg/kg perorally for a week, 60 minutes after glucose loading, Zucker control 275.8 ± 13.2",220.2 ± 5.0
same,blood sugar,"[1]; 20 mg/kg perorally for a week, 120 minutes after glucose loading, Zucker control 290.3 ± 4.6",202.8 ± 3.6
same,"blood sugar, change vs Zucker control group",[1]; 30 minutes after glucose loading,−28.8%(**)
same,"blood sugar, change vs Zucker control group",[1]; 60 minutes after glucose loading,−20.2%(*)
same,"blood sugar, change vs Zucker control group",[1]; 120 minutes after glucose loading,−30.1%(**)
same,"blood sugar level 30, 60, 120 minutes after glucose loading",[1]; [12],significant decreases
same,decrease of fasting blood sugar level,[1]; [12],19.7%
same,sensitivity to insulin,[2],insulin was significantly improved.
same,"Blood sugar (full feeding), change vs Zucker control group",[3],ns
same,"Body weight, change vs Zucker control group",[3],ns
same,"Cholesterol, change vs Zucker control group",[3],ns
same,"Free fatty acid, change vs Zucker control group",[3],−50.0%
same,"Insulin, change vs Zucker control group",[3],−23.4%
same,"Neutral fat, change vs Zucker control group",[3],−49.8%
same,"Phospholipid, change vs Zucker control group",[3],−14.3%
same,"White adipose cells, change vs Zucker control group",[3],ns
same,Free fatty acid,[3]; Zucker control 1.391 ± 0.110,0.696 ± 0.069
same,White adipose cells,[3]; Zucker control 4.06 ± 0.09,3.66 ± 0.11
same,Cholesterol,[3]; Zucker control 117.4 ± 4.8,123.6 ± 7.8
same,Insulin,[3]; Zucker control 176.3 ± 14.7,135.1 ± 15.6
same,Phospholipid,[3]; Zucker control 340.8 ± 12.0,292.1 ± 8.9
same,Body weight,[3]; Zucker control 362 ± 13,358 ± 15
same,Neutral fat,[3]; Zucker control 928.6 ± 47.7,466.3 ± 60.2
same,Blood sugar (full feeding),[3]; Zucker control printed 73.0 ± 14.5,174.3 ± 19.0
same,"insulin, free fatty acid, neutral fat and phospholipid",[3]; Zucker rats,significantly reduced
same,"Blood sugar, change vs ob/ob control group",[4],−32.4%*
same,"Body weight, change vs ob/ob control group",[4],ns
same,"Cholesterol, change vs ob/ob control group",[4],ns
same,"Free fatty acid, change vs ob/ob control group",[4],−43.6%**
same,"Insulin, change vs ob/ob control group",[4],−33.8%
same,"Neutral fat, change vs ob/ob control group",[4],−61.0%**
same,Free fatty acid,[4]; ob/ob control 1.224 ± 0.072,0.690 ± 0.078 mEq/L
same,Body weight,[4]; ob/ob control 48.5 ± 0.6,47.8 ± 0.6 g
same,Insulin,[4]; ob/ob control 73.9 ± 16.7,48.9 ± 8.2 μU/mL9
same,Neutral fat,[4]; ob/ob control 162.4 ± 16.0,63.2 ± 7.2 mg/dL
same,Cholesterol,[4]; ob/ob control 268.5 ± 24.2,249.7 ± 12.1 mg/dL
same,blood sugar,[4]; ob/ob control 360.4 ± 44.9,243.8 ± 15.6 mg/dL
same,risk factors except for body weight and blood cholesterol,[4]; ob/ob mice,significantly reduced
same,Body weight,[5],45.3 ± 1.7 g
same,Blood sugar level,[5],335.8 ± 8.5 mg/dL
same,"Blood sugar level, change vs control group",[5],−38.9%**
same,"Body weight, change vs control group",[5],ns
same,serum cholesterol decreasing effect,[6],"carboxymethylascochlorin, and ascofuranone exhibits an effect of decreasing serum"
same,Body weight,[7],20.2 ± 0.4 g
same,Blood sugar level,[7],194.1 ± 9.5 mg/dL
same,"Blood sugar level, change vs control group",[7],ns
same,"Body weight, change vs control group",[7],ns
same,serum insulin,[8],"added in an amount of about 0.1% to feed and given to an animal, it decreases serum"
COc1c(Cl)c(C)c(C=O)c(O)c1C/C=C(C)/C=C/[C@@]1(C)[C@H](C)CCC(=O)[C@@H]1C [4-O-methylascochlorin],blood sugar level in glucose tolerance test (FIG. 2),[9],significantly decreases blood sugar level
same,urine sugar level in glucose tolerance test (FIG. 3),[9],significantly decreases the concentration of glucose contained in the urine
same,distribution of the isotope-labeled compound,[10],widely and specifically distributed in the adipose tissue as well as in the adrenal gland
same,synthesis of steroid hormones (glucocorticoid+mineral corticoid) of adrenal cortex,[10],regulates synthesis of steroid hormones
same,death from circulatory failure,[11],infarction derived from arteriosclerosis of the arteria coronaria and suppressing death
same,Body weight,[5],45.5 ± 1.8 g
same,Blood sugar level,[5],478.0 ± 28.3 mg/dL
same,"Blood sugar level, change vs control group",[5],−13.3%*
same,"Body weight, change vs control group",[5],ns
same,serum cholesterol decreasing effect,[6],"carboxymethylascochlorin, and ascofuranone exhibits an effect of decreasing serum"
same,Body weight,[7],21.3 ± 0.9 g
same,Blood sugar level,[7],223.1 ± 11.6 mg/dL
same,"Blood sugar level, change vs control group",[7],ns
same,"Body weight, change vs control group",[7],ns
same,serum insulin,[8],"added in an amount of about 0.1% to feed and given to an animal, it decreases serum"
